Paper PMC6885504 (American Journal of Cardiovascular Drugs, 2019)
Entries after “also recorded” stand apart in the source; their conditions may differ. Read-outs that look alike come from different tables or passages of the source.

How the values were obtained:
[1] = cited from earlier work
[2] = assay type: in vivo, human
[3] = cited from earlier work; remark: listed apart in the source
Safety assessments = assay type: in vivo, human; settings: for safety and tolerability: apixaban 10 mg alone and in combination with clarithromycin IR 500 mg bid, healthy adults
CYP3A4 = settings: cited from earlier work
[4] = coadministered with multiple doses of clarithromycin vs apixaban alone
[5] = during treatment with the agent alone, of 19 subjects
[6] = whole study (apixaban alone, clarithromycin alone, both together)

Structure (SMILES)	half-life [1]	oral bioavailability [1]	renal clearance as share of total systemic clearance [1]	increase in apixaban AUC(0–T) [2, 4]	increase in apixaban AUC(INF) [2, 4]	increase in apixaban Cmax [2, 4]	time at which apixaban reached maximum concentration after dosing ([2]; concentration–time profiles day 1 and day 8 (Fig. 2))	change in apixaban exposure ([3]; coadministered with ketoconazole vs apixaban alone)	decrease in apixaban exposure ([3]; coadministered with rifampin vs apixaban alone)	safety and tolerability (Safety assessments)	safety and tolerability (Safety assessments; listed as apixaban)	subjects experiencing additional AEs (Safety assessments; apixaban and clarithromycin together, of 18 subjects)	subjects reporting at least one AE (Safety assessments; [5])	bleeding-related AEs, deaths, serious AEs (Safety assessments; [6])	intensity of adverse events (Safety assessments; [6])	increase in AUC of midazolam (CYP3A4; clarithromycin as inhibitor)	subjects with AEs considered related to study drug (Safety assessments; [5])	increase in AUC of midazolam (CYP3A4; ketoconazole as inhibitor)
COc1ccc(-n2nc(C(N)=O)c3c2C(=O)N(c2ccc(N4CCCCC4=O)cc2)CC3)cc1 [Apixaban]	12 h	~50%	~27%	60%	60%	30%	3 h	approximately doubled; also recorded: twofold	50%	Apixaban 10 mg alone and in combination with twice-daily clarithromycin immediate release 500 mg was safe and generally well-tolerated by healthy adult volunteers.	safe and generally well-tolerated	22.2%	5.3%	no bleeding-related AEs, deaths, or serious AEs	mild	–	–	–
CC[C@H]1OC(=O)[C@H](C)[C@@H](O[C@H]2C[C@@](C)(OC)[C@@H](O)[C@H](C)O2)[C@H](C)[C@@H](O[C@@H]2O[C@H](C)C[C@H](N(C)C)[C@H]2O)[C@](C)(OC)C[C@@H](C)C(=O)[C@H](C)[C@@H](O)[C@]1(C)O [clarithromycin]	–	–	–	–	–	–	–	–	–	–	–	–	42.1%	–	–	260–860%	26.3%	–
CC(=O)N1CCN(c2ccc(OCC3COC(Cn4ccnc4)(c4ccc(Cl)cc4Cl)O3)cc2)CC1 (stereo not shown) [ketoconazole]	–	–	–	–	–	–	–	–	–	–	–	–	–	–	–	–	–	420–1500%
